The text below walks through data of US6500823B1, “Unsaturated hydroximic acid derivatives as per abstract inhibitors” (N-Gene Research Laboratories, Inc., priority 1998, dated 2002).

In test [1] the test system is mouse HSP-70 gene promoter in mouse fibroblast L929 cells. Kind of test: HSP-70 promoter-luciferase reporter gene assay. It counts as cell-based. Conditions: Control = 100; 10 μl of 10^-2 M solution to 1 ml culture, 30 min, 1 hour regeneration. From the text: The activity of HSP-70 was studied by reporter gene assay forming a DNA hybrid. To the promoter sequence of HSP-70 encoding the heat shock protein was fused a gene of a protein that can be detected by a well-measurable enzyme activity. Biotechnological processes were used. As reporter gene luciferase enzyme was employed, the activity of which can be well determined by luminescence measurement. If the promoter of the gene of the luciferase enzyme is substituted by the promoter of the HSP-70 gene, then the change in the activity of the luciferase enzyme i.e. the change of the frequency of the transcription from the gene correlates with the frequency of the transcription of the HSP-70 gene that proceeds in the given circumstances. In this way, if a substance or process influences the expression of the HJSP-70 gene, the effect can be studied through the measurement of the luciferase enzyme activity. The effect of the substances to be tested on the HSP-70 expression was studied in such an experimental system.
A double-stranded DNA circular molecule i.e. a plasmid containing the HSP-70 reporter gene was constructed to perform the measurements. An almost 600 bp long sequence of the mouse HSP-70 gene promoter (5′ direction from the start site of the gene) was fused to the coding sequence of the luciferase gene originated from Photymus pyralis. The applied promoter sequence contained several protein binding sites facilitating the expression of the HSP-70 gene. The HSP promoter-luciferase heterologous gene construct was built in a pBR based plasmid vector that can be selected for neomycin. This HSP-70-luciferase plasmid was transfected into mouse fibroblast L929 cells. The assay was performed as follows.
The HSP-70-luc plasmid containing L929 cells are grown in DMEM (Dulbecco's Modified Eagle's Medium) medium supplemented with 5% FCS (Fetal Calf Serum). 10^4 cells are plated in the wells of a 24-well Costar cell culture plate in 1 ml of culture medium. Test substances are dissolved in PBS (Phosphate Buffered Saline) in 10^−2 M concentration. After attachment of the cells (3-4 hours after plating) 10 μl of the solution are given to the cultures and cells are incubated for 30 min. at 37° C. in a CO2 thermostat. Culture medium is then changed for fresh one (without test substance) and cells are allowed to regenerate for 1 hour at 37° C., then once washed with PBS. After removal of PBS 40 μl of 1× lysis buffer are added to the cells, and the samples are kept on ice for 30 minutes. Then the samples are transferred into Eppendorf vials and centrifuged at 14000 rpm for 20 min at 4° C. 5 μl of the supernatant is added to 25 μl of luciferase assay buffer and the luminescence of the samples is measured for 25 seconds in a luminometer.
(A reporter such as luciferase makes a cellular process visible.)

For test [2], the target named is T1, poly-ADP-ribose polymerase from rat liver (Rattus norvegicus, UniProt P27008).
T1 construct: We have isolated the poly-ADP-ribose polymerase from rat liver; from tissue; host or cells: rat liver
T1 sequence (P27008 whole entry): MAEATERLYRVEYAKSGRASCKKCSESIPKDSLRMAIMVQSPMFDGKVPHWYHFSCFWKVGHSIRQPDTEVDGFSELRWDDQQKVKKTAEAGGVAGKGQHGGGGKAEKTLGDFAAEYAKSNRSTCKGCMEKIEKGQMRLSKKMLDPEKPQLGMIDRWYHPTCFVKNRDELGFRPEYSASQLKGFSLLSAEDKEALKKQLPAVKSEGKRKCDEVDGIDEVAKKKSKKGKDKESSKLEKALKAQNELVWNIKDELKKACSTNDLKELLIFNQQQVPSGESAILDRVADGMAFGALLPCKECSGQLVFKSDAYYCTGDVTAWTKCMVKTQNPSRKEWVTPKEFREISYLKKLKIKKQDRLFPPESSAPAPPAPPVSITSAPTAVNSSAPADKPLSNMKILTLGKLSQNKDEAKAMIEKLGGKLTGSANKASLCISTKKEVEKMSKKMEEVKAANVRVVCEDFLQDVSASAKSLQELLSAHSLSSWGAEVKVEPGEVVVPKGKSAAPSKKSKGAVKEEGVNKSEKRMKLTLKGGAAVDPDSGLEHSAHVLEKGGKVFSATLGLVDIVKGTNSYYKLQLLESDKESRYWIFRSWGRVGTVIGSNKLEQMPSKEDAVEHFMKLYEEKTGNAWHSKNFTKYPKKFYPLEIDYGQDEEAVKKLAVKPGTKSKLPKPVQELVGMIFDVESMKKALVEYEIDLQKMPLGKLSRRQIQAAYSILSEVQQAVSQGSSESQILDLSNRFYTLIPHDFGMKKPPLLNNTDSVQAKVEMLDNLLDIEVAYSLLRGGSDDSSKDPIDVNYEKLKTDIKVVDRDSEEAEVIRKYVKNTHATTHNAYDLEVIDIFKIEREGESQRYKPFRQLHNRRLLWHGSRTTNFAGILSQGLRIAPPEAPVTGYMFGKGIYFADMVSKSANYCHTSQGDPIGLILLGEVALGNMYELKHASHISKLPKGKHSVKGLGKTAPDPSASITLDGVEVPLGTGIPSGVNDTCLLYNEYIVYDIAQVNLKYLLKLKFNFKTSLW
Kind of test: In vitro PARP inhibition on isolated enzyme. It counts as biochemical. To be noted: for IC50: isolated rat liver enzyme, ± SEM from four parallel measurements, read-out: PARP I0.5 mg/l (converted). The method, then: We have isolated the poly-ADP-ribose polymerase from rat liver according to the article Shah.G. M.,Anal Biochem, 227, 1-13 (1995).
We have determined the PARP activation in 130 μl of reaction mixture, which consists of: 100 mM Tris-HCl puffer, pH 8.0, 10 mM MgCl2, 10% glycerol, 1.5 mM DTT, 100 μg of (32P), or (3H), NAD+, 10 μg of histone. We have stopped the reaction after 10 minutes with 8% perchloric acid and seperated the protein through centrifugation (10 minutes, 10.000×g). We have washed the precipitate with 8% perchloric acid, and we measured the radioactivity connected to the protein with scintillation counter.

For test [3], the system named is HepG2 cells. Kind of test: LDH enzyme activity in hypoxia exposed HepG2 cells. Format: cell-based. Conditions: Homo sapiens, 30 μg/ml, hypoxia 1% O2 24 hours, Hypoxic control = 100, read-out: Relative LDH content, %. The method, then:
HepG2 cell were cultured in DMEM medium supplemented with 10% FCS in 5% CO2 containing air at 37° C. 10^5 cells were plated in the wells of Costar 24-well culture plates in 1 ml medium. On the following day, cells were treated with the test compounds in a concentration of 30 μg/ml, then cells were exposed to hypoxia treatment (1% O2, 5% CO2 in nitrogen gas) for 24 hours. A part of the control cultures were treated with water used as the solvent, and another part of them was not exposed to hypoxia. At the end of the hypoxic treatment, medium was removed and cells were washed twice with cold PBS. Cells lysates were prepared in 0.05% Triton X-100 containing phosphate buffer (0.05 M) and after centrifugation (2 min. […]) the LDH activity of the supernatant was determined on the basis of NADH consumption in the presence of sodium piruvate substrate.
The LDH activity of the cells treated with the test compounds and compared to the activity of the control exposed to hypoxia is shown in Table 6.

Test [4] concerns male SPRD rats. Kind of test: Reperfusion induced arrhythmia after LAD occlusion, survival rate. Format: in vivo, rat. Conditions: for responders at 5 mg/kg: Rattus norvegicus, iv, control 15.38, read-out: % SURV; for effect on survival of reperfusion arrhythmia, in words: compared with Example 2 (100% survival). The procedure:
Experiments were carried out in male SPRD rats (acceptable body weight range: 300-350 g). The animals were anesthetized with sodium pentobarbital (Nembutal®: 60 mg/kg intraperitoneally) and remained breathing spontaneously. The animals were ventilated with respirator (MTA Kutesz) by using trachea cannule which was inserted after tracheotomy. The standard lead of the ECG II is monitored. Right femoral artery was catheterized and connected to a pressure transducer (BPR-01, Experimetria, Hungary), a preamplifier and pulsotachometer (HG-M, Experimetria, Hungary) for arterial blood pressure and heart rate measurement, respectively. The external jugular vein was cannulated for drug administration. After thoracotomy a silk (braided, coated 4-0) was placed under the left anterior coronary (LAD) artery. After a few minutes' stabilization period, a 5 min occlusion of LAD artery was applied, followed by a 10 min reperfusion period. The survival rate was evaluated.

Test [5] concerns the target Moloney murine leukemia virus reverse transcriptase (Moloney murine leukemia virus, UniProt P03355). Kind of test: Reverse transcriptase inhibition, (3H)dTTP incorporation. Format: biochemical. Conditions: read-out: Enzyme inhibition, %. The procedure:
The compounds may be sorted into group of the non-nucleoside type reverse transcriptase inhibitors. Tests were performed on Moloney murine leukemia virus reverse transcriptase that is considered as a good model of the HIV reverse transcriptase enzyme. The experimental assembly was the following.
The assay measures the incorporation of (3H)dTTP into cDNA using poly(dA) template and oligo(dT)12-18 primer. The reaction was carried out in 20 μl volume.
The reaction was started by addition of 5U reverse transcriptase
The reaction mixture was incubated for 40 min at 37° C. Then 15 μl of the reaction mixture was loaded on Whatman DE81 filter discs and filters were washed sequentially with 5% disodium hidrogen phosphate buffer, with water and with 96% (v/v) ethanol. After drying, the filters were placed into scintillation cocktail (OptiPhase, HiSafe, Wallac) and the radioactivity was measured in a Packard Tri-Carb 2200 scintillation counter.
Two compounds with known inhibitory activity were used in the experiments as positive control. AZT is a nucleoside analog while the compound Nevirapin is a non-nucleoside type inhibitor. Nevirapine binds to the so called benzodiazepine binding site of the enzyme. The applied concentrations of the test compounds were in the 0.2-2 μg/ml concentration range.

Counter-ions that a name gives are not always drawn.

Broadly, the inhibition is the drop in the measured response relative to a control, in per cent.

For the compound `CC(C)(C)NCC(O)CON=C(N)C=Cc1ccccc1` (stereo not drawn) [Example 6, O-(3-t.Buthylamino-2-hydroxy-propyl)-cinnamic Acid Amidoxime], in test [1], the “Activity (HSP-70 promoter luciferase)” value was 302. For the same compound, in test [2], the IC50 is 27.5 µM.
Regarding `NC(C=Cc1ccccc1)=NOCC(O)CN1CCOCC1` (stereo not drawn) [Example 7, O-(3-Morpholino-2-hydroxy-propyl)-cinnamic Acid Amidoxime], the activity at 30 µg/mL in test [3] was found to be 141%. In test [4], the responders at 5 mg/kg turned out to be 42%. In addition, in test [2], the IC50 is 22.9 µM.
Turning to `COc1ccc(C=CC(N)=NOCC(O)CNC(C)(C)C)cc1OC` (stereo not drawn) [Example 8, O-(3-t.Butylamino-2-hydroxy-propyl)-3,4-dimethoxycinnamic Acid Amidoxime Dihydrochloride], the activity at 30 µg/mL in test [3] came out at 116%. In test [4], the responders at 5 mg/kg was 37.5%. In test [2], the IC50 is 28.5 µM.
As for `COc1ccc(C=CC(N)=NOCC(O)CN2CCOCC2)cc1OC` (stereo not drawn) [Example 9, O-(3-Morpholino-2-hydroxy-propyl-3,4-dimethoxycinnamic Acid Amidoxime Hydrochloride], the IC50 in test [2] was 35.6 µM.
As for `NC(C=Cc1cccnc1)=NOCC(O)CN1CCOCC1` (stereo not drawn) [Example 10, O-(3-Morpholino-2-hydroxy-propyl)-3-(3-pyridyl)-acrylic Acid Amidoxime Hydrochloride], the IC50 in test [2] is 55.5 µM.
Turning to `NC(C=Cc1ccccc1)=NOCC(O)CN1CCc2ccccc2C1` (stereo not drawn) [Example 11, O-[3-(1,2,3,4-Tetrahydro-2-isoquinolyl)-2-hydroxy-propyl)]cinnamic Acid Amidoxime Dihydrochloride], in test [3], the activity at 30 µg/mL was 124%. Besides, the responders at 5 mg/kg in test [4] was determined as 20%. In test [2], the IC50 was 51.2 µM.
In the case of `COc1ccc(C=CC(N)=NOCC(O)CN2CCc3ccccc3C2)cc1OC` (stereo not drawn) [Example 12, O-[3-(1,2,3,4-Tetrahydro-2-isoquinolyl)-2-hydroxy-propyl]-3,4-dimethoxy-cinnamic Acid Amidoxime Dihydrochloride], the IC50 in test [2] was 19.4 µM.
For the compound `NC(C=Cc1cccnc1)=NOCC(O)CN1CCc2ccccc2C1` (stereo not drawn) [Example 13, O-(3-(1,2,3,4-Tetrahydro-2-isoquinolyl)-2-hydroxy-propyl)-3-(3-pyridyl) Acrylic Acid Amidoxime Dihydrochloride], in test [1], the “Activity (HSP-70 promoter luciferase)” value turned out to be 156. In test [2], the IC50 is 34 µM.
Consider `CC(C)(C)NCC(O)CON=C(N)C=Cc1cccnc1` (stereo not drawn) [Example 14, O-(3-t.Buthylamino-2-hydroxy-propyl)-3-(3-pyridyl)acrylic Acid Amidoxime Dihydrochloride], for which the responders at 5 mg/kg in test [4] was 43%. In test [2], the IC50 was 44.5 µM.
Consider `NC(C=Cc1ccccc1)=NOCC(O)CN1CCCC1` (stereo not drawn) [Example 15, O-3-Pyrrolidino-2-hydroxy-propyl) Cinnamic Acid Amidoxime dihydrochloride], for which the “Activity (HSP-70 promoter luciferase)” value in test [1] was 115. In addition, the IC50 in test [2] was 65.7 µM.
As for `COc1ccc(C=CC(N)=NOCC(O)CN2CCCC2)cc1OC` (stereo not drawn) [Example 16, O-(3-Pyrrolidino-2-hydroxy-propyl)-3,4-dimethoxycinnamic Acid Amidoxime Dihydrochloride], the activity at 30 µg/mL in test [3] is 120%. Besides, the IC50 in test [2] is 51.5 µM.
On the same counts, the results for `NC(C=Cc1cccnc1)=NOCC(O)CN1CCCC1` (stereo not drawn) [Example 17, O-(3-Pyrrolidino-2-hydroxy-propyl)-3-(3-pyridyl)acrylic Acid Amidoxime Hydrochloride] are 118% and 51.7 µM.
In the case of `COc1ccc(C=CC(N)=NOCC(O)CN2CCCCC2)cc1OC` (stereo not drawn) [Example 18, O-(3-Piperidino-2-hydroxy-propyl)-3,4-dimethoxycinnamic Acid Amidoxime], in test [4], the responders at 5 mg/kg worked out at 67% and the “effect on survival of reperfusion arrhythmia, in words” value is on record as “similarly outstanding effect”. Further, in test [2], the IC50 is 93.8 µM.
As to `NC(C=C1CCCCC1)=NOCC(O)CN1CCCCC1` (stereo not drawn) [Example 19, O-(3-Piperidino-2-hydroxy-propyl)cyclohexyldene Acetamidoxime], the “PARP inhibitor classification in words” value in test [2] (conclusion on Table 1) is on record as “very poor PARP inhibitor”. Further, the IC50 in test [2] is 609 µM.
`OC(CON=C(Cl)C=Cc1ccccc1)CN1CCCC1` (stereo not drawn) [Example 26, N-(3-Pyrrolidino-2-hydroxy-propoxy)-3-phenyl Acrylimidoyl Chloride]: the activity at 30 µg/mL in test [3] came out at 112%.
With `CC(C)(C)NCC(O)CON=C(Cl)C=Cc1cccnc1` (stereo not drawn) [Example 31, N-(3-t.Butylamino-2-hydroxy-propoxy)-3-(3 pyridyl)acrylimidoyl Chloride Hydrogen Maleate], the IC50 in test [2] is 19.2 µM.
Turning to `ClC(C=Cc1cccnc1)=NOCCCN1CCCCC1.O=C(O)/C=C\C(=O)O` [Example 32, N-(3-Piperidino-propoxy)-3-(3-pyridyl)acrylimidoyl Chloride Hydrogen Maleate], in test [4], the responders at 5 mg/kg worked out at 71.4% and the “effect on survival of reperfusion arrhythmia, in words” value is given as “similarly outstanding effect”.
For the compound `OC(CON=C(Cl)C=Cc1cccnc1)CN1CCOCC1` (stereo not drawn) [Example 33, N-(3-Morpholino-2-hydroxy-propoxy)-3-(3-pyridyl)acrylimidoyl Chloride Hydrogen Maleate], the IC50 in test [2] is 15.8 µM.
Consider `Cc1ccnc2c1NC(=O)c1cccnc1N2C1CC1` [Nevirapin, reference compound], for which the inhibition at 0.2 µg/mL in test [5] (concentration 0.2 μg/ml) was found to be 21%. Further, the inhibition at 2 µg/mL in test [5] (concentration 2 μg/ml) turned out to be 26%.
